# *1 amine or outer side, *2 acyl side, *3 side chain or, on linkers, in order; H or OH if unused. Where a SMILES comes first, the peptide text is derived from it. Bridges are numbered along the chain shown (N, C = ends). Roman numbers before positions name the chains, in order. [ ]: non-standard residue; d: D form. Actinocin(9to1) = Cc1c2oc3c(C)ccc(C(=O)[*:1])c3nc-2c(C(=O)[*:2])c(N)c1=O; NMeV = CN[C@H](C(=O)O)C(C)C; Sar = CNCC(=O)O
# How the values were obtained:
# Strain G393-B445 = assay: Antibiotic sensitivity, paper disc-agar diffusion method; type: cell-based, Empedobacter sp.; set-up: key: S (sensitive); R (resistant); I (intermediate); settings: nutrient agar, 2 day's incubation at 28° C., Difco discs, amount/disc per antibiotic
# E. coli NIHJ = assay: as above; type: cell-based; set-up: key: S (sensitive); R (resistant); I (intermediate); settings: nutrient agar, 2 day's incubation at 28° C., Difco discs, amount/disc per antibiotic
# S. aureus 209P = assay: as above; type: cell-based; set-up: key: S (sensitive); R (resistant); I (intermediate); settings: nutrient agar, 2 day's incubation at 28° C., Difco discs, amount/disc per antibiotic
# [1] = system: Staphylococcus aureus 209P; assay: MIC, serial two-fold dilution method (aerobic); type: cell-based; settings: Staphylococcus aureus 209P; Mueller-Hinton agar; inoculum 10^4; read-out: minimum inhibitory concentration (MIC)
# [2] = system: Staphylococcus aureus Smith; assay: MIC, serial two-fold dilution method (aerobic); type: cell-based; settings: Staphylococcus aureus Smith; Mueller-Hinton agar; inoculum 10^4; read-out: minimum inhibitory concentration (MIC)
# [3] = system: Staphylococcus aureus #193; assay: MIC, serial two-fold dilution method (aerobic); type: cell-based; settings: Staphylococcus aureus #193; Mueller-Hinton agar; inoculum 10^4; read-out: minimum inhibitory concentration (MIC)
# [4] = system: Staphylococcus aureus BX-1633; assay: MIC, serial two-fold dilution method (aerobic); type: cell-based; settings: BX1633; Staphylococcus aureus BX-1633; Mueller-Hinton agar; inoculum 10^4; read-out: minimum inhibitory concentration (MIC)
# [5] = system: Staphylococcus aureus A9601; assay: MIC, serial two-fold dilution method (aerobic); type: cell-based; settings: Staphylococcus aureus A9601; Mueller-Hinton agar; inoculum 10^4; read-out: minimum inhibitory concentration (MIC)
# [6] = system: Staphylococcus aureus A9748; assay: MIC, serial two-fold dilution method (aerobic); type: cell-based; settings: Staphylococcus aureus A9748; Mueller-Hinton agar; inoculum 10^4; read-out: minimum inhibitory concentration (MIC)
# [7] = system: Staphylococcus aureus A9856; assay: MIC, serial two-fold dilution method (aerobic); type: cell-based; settings: Staphylococcus aureus A9856; Mueller-Hinton agar; inoculum 10^4; read-out: minimum inhibitory concentration (MIC)
# [8] = system: Staphylococcus aureus A20239; assay: MIC, serial two-fold dilution method (aerobic); type: cell-based; settings: Staphylococcus aureus A20239; Mueller-Hinton agar; inoculum 10^4; read-out: minimum inhibitory concentration (MIC)
# [9] = system: Staphylococcus aureus A20394; assay: MIC, serial two-fold dilution method (aerobic); type: cell-based; settings: Staphylococcus aureus A20394; Mueller-Hinton agar; inoculum 10^4; read-out: minimum inhibitory concentration (MIC)
# [10] = system: Staphylococcus aureus A20610; assay: MIC, serial two-fold dilution method (aerobic); type: cell-based; settings: Staphylococcus aureus A20610; Mueller-Hinton agar; inoculum 10^4; read-out: minimum inhibitory concentration (MIC)
# [11] = system: Staphylococcus aureus A20701; assay: MIC, serial two-fold dilution method (aerobic); type: cell-based; settings: Staphylococcus aureus A20701; Mueller-Hinton agar; inoculum 10^4; read-out: minimum inhibitory concentration (MIC)
# [12] = system: Staphylococcus aureus A22421; assay: MIC, serial two-fold dilution method (aerobic); type: cell-based; settings: Staphylococcus aureus A22421; Mueller-Hinton agar; inoculum 10^4; read-out: minimum inhibitory concentration (MIC)
# Sarcina lutea PCI-1001 = assay: MIC, serial two-fold dilution method (aerobic); type: cell-based; settings: Micrococcus luteus, PCI1001; Sarcina lutea PCI-1001; Mueller-Hinton agar; inoculum 10^4; read-out: minimum inhibitory concentration (MIC)
# Micrococcus flavus D-12 = assay: MIC, serial two-fold dilution method (aerobic); type: cell-based; settings: D12; Micrococcus flavus D-12; Mueller-Hinton agar; inoculum 10^4; read-out: minimum inhibitory concentration (MIC)
# [13] = system: Bacillus anthracis IID-115; assay: microbe, parasite or virus in culture; type: cell-based; settings: Bacillus anthracis, IID115, read-out: minimum inhibitory concentration (MIC)
# [14] = system: Bacillus subtilis ATCC 6633; assay: MIC, serial two-fold dilution method (aerobic); type: cell-based; settings: ATCC6633; Bacillus subtilis ATCC 6633; Mueller-Hinton agar; inoculum 10^4; read-out: minimum inhibitory concentration (MIC)
# Escherichia coli NIHJ = assay: MIC, serial two-fold dilution method (aerobic); type: cell-based; settings: Escherichia coli NIHJ; Mueller-Hinton agar; inoculum 10^4; read-out: minimum inhibitory concentration (MIC)
# [15] = system: Klebsiella pneumoniae D-11; assay: MIC, serial two-fold dilution method (aerobic); type: cell-based; settings: D11; Klebsiella pneumoniae D-11; Mueller-Hinton agar; inoculum 10^4; read-out: minimum inhibitory concentration (MIC)
# Proteus mirabilis A9554 = assay: MIC, serial two-fold dilution method (aerobic); type: cell-based; settings: Proteus mirabilis A9554; Mueller-Hinton agar; inoculum 10^4; read-out: minimum inhibitory concentration (MIC)
# Proteus vulgaris A9436 = assay: MIC, serial two-fold dilution method (aerobic); type: cell-based; settings: Proteus vulgaris A9436; Mueller-Hinton agar; inoculum 10^4; read-out: minimum inhibitory concentration (MIC)
# [16] = system: Pseudomonas aeruginosa D-113; assay: MIC, serial two-fold dilution method (aerobic); type: cell-based; settings: D113; Pseudomonas aeruginosa D-113; Mueller-Hinton agar; inoculum 10^4; read-out: minimum inhibitory concentration (MIC)
compound,measurement,setting,value
Polymyxin B,Sensitivity Strain G393-B445,Strain G393-B445,R
same,Sensitivity E. coli NIHJ,E. coli NIHJ,R
same,Sensitivity S. aureus 209P,S. aureus 209P,R
"Cc1c2oc3c(C)ccc(C(=O)N[C@@H]4C(=O)N[C@H](C(C)C)C(=O)N5CCC[C@H]5C(=O)N(C)CC(=O)N(C)[C@@H](C(C)C)C(=O)O[C@@H]4C)c3nc-2c(C(=O)N[C@@H]2C(=O)N[C@H](C(C)C)C(=O)N3CCC[C@H]3C(=O)N(C)CC(=O)N(C)[C@@H](C(C)C)C(=O)O[C@@H]2C)c(N)c1=O [Actinomycin D] (I: T[dV]P[Sar][NMeV] / II: T[dV]P[Sar][NMeV]; ester I:1-I:C, II:1-II:C; linker I:N-II:N via Actinocin(9to1))",Sensitivity Strain G393-B445,Strain G393-B445,I
same,Sensitivity E. coli NIHJ,E. coli NIHJ,R
same,Sensitivity S. aureus 209P,S. aureus 209P,S
CN(C)[C@@H]1C(O)=C(C(N)=O)C(=O)[C@@]2(O)C(O)=C3C(=O)c4c(O)cccc4[C@@](C)(O)[C@H]3C[C@@H]12 [Tetracycline],Sensitivity Strain G393-B445,Strain G393-B445,S
same,Sensitivity E. coli NIHJ,E. coli NIHJ,S
same,Sensitivity S. aureus 209P,S. aureus 209P,S
[H]/N=C(/N)N[C@H]1[C@H](O)[C@@H](O)[C@H](O[C@@H]2O[C@@H](C)[C@](O)(C=O)[C@H]2O[C@@H]2O[C@@H](CO)[C@H](O)[C@@H](O)[C@@H]2NC)[C@@H](N/C(N)=N\[H])[C@@H]1O [Streptomycin],Sensitivity Strain G393-B445,Strain G393-B445,S
same,Sensitivity E. coli NIHJ,E. coli NIHJ,I
same,Sensitivity S. aureus 209P,S. aureus 209P,I
NC[C@H]1O[C@H](O[C@H]2[C@H](O)[C@@H](O[C@H]3O[C@H](CO)[C@@H](O)[C@H](N)[C@H]3O)[C@H](N)C[C@@H]2N)[C@H](O)[C@@H](O)[C@@H]1O [Kanamycin],MIC,[1],0.4 µg/mL
same,MIC,[2],0.4 µg/mL
same,MIC,[3],0.8 µg/mL
same,MIC,[4],0.8 µg/mL
same,MIC,[5],0.4 µg/mL
same,MIC,[6],1.6 µg/mL
same,MIC,[7],0.8 µg/mL
same,MIC,[8],> 100 µg/mL
same,MIC,[9],0.8 µg/mL
same,MIC,[10],100 µg/mL
same,MIC,[11],100 µg/mL
same,MIC,[12],> 100 µg/mL
same,MIC,Sarcina lutea PCI-1001,3.1 µg/mL
same,MIC,Micrococcus flavus D-12,3.1 µg/mL
same,MIC,[13],0.4 µg/mL
same,MIC,[14],0.2 µg/mL
same,MIC,Escherichia coli NIHJ,0.8 µg/mL
same,MIC,[15],0.2 µg/mL
same,MIC,Proteus mirabilis A9554,0.4 µg/mL
same,MIC,Proteus vulgaris A9436,0.4 µg/mL
same,MIC,[16],> 100 µg/mL
CC1(C)S[C@@H]2[C@H](NC(=O)Cc3ccccc3)C(=O)N2[C@H]1C(=O)O [Pencillin G],Sensitivity Strain G393-B445,Strain G393-B445,S
same,Sensitivity E. coli NIHJ,E. coli NIHJ,I
same,Sensitivity S. aureus 209P,S. aureus 209P,S

# From patent US4409210A, “Antibiotic compound” (priority 1982, dated 1983)
